# Assay results as given in ChEMBL document CHEMBL4052800, “Syntheses of cytotoxic novel arctigenin derivatives bearing halogen and alkyl groups on aromatic rings” (Bioorg Med Chem Lett, 2017).
# Tests used:
# HL-60 [1] = test: Cytotoxicity against human HL60 cells assessed as reduction in cell viability after 48 hrs by WST-8 assay; format: functional, cell-based; details: HL-60, 48 h
# HeLa = test: Cytotoxicity against human HeLa cells assessed as reduction in cell viability after 48 hrs by WST-8 assay; format: functional, cell-based
# HL-60 [2] = test: Cytotoxicity against human HL60 cells assessed as reduction in cell viability after 48 hrs by WST-8 assay relative to control; format: functional
SMILES,EC50 (HL-60 [1]),EC50 (HeLa),inhibition (INH) (HL-60 [2])
COc1ccccc1C[C@H]1COC(=O)[C@@H]1Cc1ccc(Cl)c(Cl)c1,14 µM,24 µM,–
Cc1cccc(C[C@H]2COC[C@@H]2Cc2ccc(Cl)c(Cl)c2)c1,28 µM,–,–
Cc1cccc(C[C@H]2COC(=O)[C@@H]2Cc2ccc(Cl)c(Cl)c2)c1,22 µM,–,–
COc1ccc(C[C@H]2COC[C@@H]2Cc2ccc(Cl)c(Cl)c2)cc1OC,16 µM,–,–
COCOc1cccc(C[C@H]2C(=O)OC[C@@H]2Cc2ccccc2)c1,80 µM,–,–
O=C1OC[C@H](Cc2ccccc2)[C@H]1Cc1cccc(F)c1,75 µM,–,–
O=C1OC[C@H](Cc2cccc(O)c2)[C@H]1Cc1ccc(Cl)c(Cl)c1,48 µM,–,–
O=C1OC[C@H](Cc2ccccc2)[C@H]1Cc1ccccc1,77 µM,–,–
O=C1OC[C@H](Cc2ccccc2F)[C@H]1Cc1ccc(Cl)c(Cl)c1,28 µM,–,–
O=C1OC[C@H](Cc2ccccc2)[C@H]1Cc1ccccc1O,83 µM,–,–
COc1ccc(C[C@H]2COC(=O)[C@@H]2Cc2ccc(Cl)c(Cl)c2)cc1O,32 µM,–,–
COc1cc(C[C@H]2COC(=O)[C@@H]2Cc2ccc(O)c(OC)c2)ccc1O [MATAIRESINOL],74 µM,> 100 µM,–
CCCCOc1ccccc1C[C@H]1COC(=O)[C@@H]1Cc1ccc(Cl)c(Cl)c1,10 µM,> 100 µM,–
COCOc1ccc(C[C@H]2C(=O)OC[C@@H]2Cc2ccccc2)cc1,71 µM,–,–
CCc1ccc(C[C@H]2COC(=O)[C@@H]2Cc2ccc(Cl)c(Cl)c2)cc1,16 µM,–,–
CCc1ccc(C[C@H]2COC[C@@H]2Cc2ccc(Cl)c(Cl)c2)cc1,26 µM,–,–
COc1cc(C[C@H]2C(=O)OC[C@@H]2Cc2ccccc2)cc(OC)c1OC,> 100 µM,–,44%
CCCCc1ccc(C[C@H]2COC(=O)[C@@H]2Cc2ccc(Cl)c(Cl)c2)cc1,9.4 µM,27 µM,–
CCCCOc1ccc(/C=C2\C(=O)OC[C@@H]2Cc2ccccc2)cc1,58 µM,–,–
O=C1OC[C@H](Cc2ccccc2)[C@H]1Cc1cccc(O)c1,> 100 µM,–,45%
O=C1OC[C@H](Cc2ccc(F)c(F)c2)[C@H]1Cc1ccc(Cl)c(Cl)c1,25 µM,–,–
O=C1OC[C@H](Cc2ccccc2)[C@H]1Cc1ccc(O)cc1,88 µM,–,–
CCCCc1ccc(C[C@H]2COC[C@@H]2Cc2ccc(Cl)c(Cl)c2)cc1,23 µM,–,–
Oc1ccccc1C[C@H]1COC[C@@H]1Cc1ccc(Cl)c(Cl)c1,34 µM,–,–
COc1ccc(C[C@H]2COC(=O)[C@@H]2Cc2ccc(Cl)c(Cl)c2)cc1,37 µM,–,–

SMILES,EC50 (HL-60 [1]),EC50 (HeLa),inhibition (INH) (HL-60 [2])
CCCCOc1ccc(C[C@H]2C(=O)OC[C@@H]2Cc2ccccc2)cc1OCCCC,> 100 µM,–,29%
C[C@H](Cc1ccccc1)[C@H](C)Cc1ccc(Cl)c(Cl)c1,19 µM,–,–
COc1ccccc1C[C@H]1C(=O)OC[C@@H]1Cc1ccccc1,79 µM,–,–
O=C1OC[C@H](Cc2ccccc2)[C@H]1Cc1ccccc1C(F)(F)F,37 µM,–,–
Cc1ccc(C[C@H]2C(=O)OC[C@@H]2Cc2ccccc2)cc1C,35 µM,–,–
O=C1OC[C@H](Cc2ccccc2)[C@H]1Cc1ccc(Cl)cc1,36 µM,–,–
COc1ccccc1C[C@H]1COC[C@@H]1Cc1ccc(Cl)c(Cl)c1,55 µM,–,–
Cc1ccccc1C[C@H]1C(=O)OC[C@@H]1Cc1ccccc1,57 µM,–,–
CCOc1ccccc1C[C@H]1COC[C@@H]1Cc1ccc(Cl)c(Cl)c1,29 µM,–,–
Clc1ccc(C[C@H]2COC[C@@H]2Cc2ccccc2)cc1Cl,19 µM,–,–
CCCCOc1cccc(C[C@H]2C(=O)OC[C@@H]2Cc2ccccc2)c1,26 µM,–,–
COc1cc(C[C@@H](C)[C@H](C)Cc2ccc(O)c(OC)c2)ccc1O [(-)-DIHYDROGUAIARETICACID],26 µM,22 µM,–
O=C1OC[C@H](Cc2ccccc2)[C@H]1Cc1ccc(F)cc1,57 µM,–,–
Oc1ccc(C[C@H]2COC[C@@H]2Cc2ccc(Cl)c(Cl)c2)cc1,31 µM,–,–
Fc1cccc(C[C@H]2COC[C@@H]2Cc2ccc(Cl)c(Cl)c2)c1,20 µM,–,–
COc1cccc(C[C@H]2COC(=O)[C@@H]2Cc2ccc(Cl)c(Cl)c2)c1,34 µM,–,–
CCCCCCCOc1ccc(C[C@H]2C(=O)OC[C@@H]2Cc2ccccc2)cc1,> 100 µM,–,17%
COc1ccc(C[C@H]2C(=O)OC[C@@H]2Cc2ccccc2)cc1,67 µM,–,–
CCOc1ccccc1C[C@H]1COC(=O)[C@@H]1Cc1ccc(Cl)c(Cl)c1,15 µM,31 µM,–
Cc1ccc(C[C@H]2COC(=O)[C@@H]2Cc2ccc(Cl)c(Cl)c2)cc1C,16 µM,–,–
COCOc1ccccc1C[C@H]1C(=O)OC[C@@H]1Cc1ccccc1,76 µM,–,–
O=C1OC[C@H](Cc2ccccc2)[C@H]1Cc1ccccc1OC(F)(F)F,39 µM,–,–
Clc1ccc(C[C@H]2COC[C@@H]2Cc2ccc3c(c2)OCO3)cc1Cl,22 µM,–,–
COc1ccc(C[C@H]2COC[C@@H]2Cc2ccc(Cl)c(Cl)c2)cc1,39 µM,–,–
Cc1ccccc1C[C@H]1COC[C@@H]1Cc1ccc(Cl)c(Cl)c1,21 µM,–,–

SMILES,EC50 (HL-60 [1]),EC50 (HeLa),inhibition (INH) (HL-60 [2])
O=C1OC[C@H](Cc2ccccc2)[C@H]1Cc1ccc(Cl)cc1Cl,19 µM,23 µM,–
Cc1cccc(C[C@H]2C(=O)OC[C@@H]2Cc2ccccc2)c1,53 µM,–,–
O=C1OC[C@H](Cc2ccccc2)[C@H]1Cc1ccccc1F,72 µM,–,–
O=C1OC[C@H](Cc2ccccc2)[C@H]1Cc1ccc(Cl)c(Cl)c1,19 µM,26 µM,–
COc1ccc(C[C@H]2COC(=O)[C@@H]2Cc2ccc(Cl)c(Cl)c2)cc1OC,24 µM,–,–
CCCCCCCOc1cccc(C[C@H]2C(=O)OC[C@@H]2Cc2ccccc2)c1,81 µM,–,–
Cc1ccccc1C[C@H]1COC(=O)[C@@H]1Cc1ccc(Cl)c(Cl)c1,22 µM,–,–
CCCCOc1ccccc1C[C@H]1C(=O)OC[C@@H]1Cc1ccccc1,20 µM,–,–
O=C1OC[C@H](Cc2ccc3c(c2)OCCO3)[C@H]1Cc1ccc(Cl)c(Cl)c1,28 µM,–,–
COc1cc(C[C@@H]2COC(=O)[C@H]2Cc2ccc(O)c(OC)c2)ccc1O,> 100 µM,> 100 µM,–
COc1cc(C[C@H]2C(=O)OC[C@@H]2Cc2ccc(OC)c(OC)c2)ccc1O [ARCTIGENIN],12 µM,> 100 µM,–
Clc1ccc(C[C@H]2COC[C@@H]2Cc2ccc(Cl)c(Cl)c2)cc1Cl,16 µM,–,–
O=C1OC[C@H](Cc2ccccc2)[C@H]1Cc1ccc(C(F)(F)F)cc1,22 µM,29 µM,–
O=C1OC[C@H](Cc2ccccc2O)[C@H]1Cc1ccc(Cl)c(Cl)c1,33 µM,–,–
Cc1ccc(C[C@H]2COC(=O)[C@@H]2Cc2ccc(Cl)c(Cl)c2)cc1,19 µM,–,–
Oc1cccc(C[C@H]2COC[C@@H]2Cc2ccc(Cl)c(Cl)c2)c1,31 µM,–,–
O=C1OC[C@H](Cc2ccccc2)[C@H]1Cc1ccc(F)c(F)c1,50 µM,–,–
O=C1OC[C@H](Cc2ccccc2)[C@H]1Cc1cc(Cl)cc(Cl)c1,23 µM,17 µM,–
Cc1ccc(C[C@H]2C(=O)OC[C@@H]2Cc2ccccc2)cc1,44 µM,–,–
Clc1ccc(C[C@H]2COC[C@@H]2Cc2ccc3c(c2)OCCO3)cc1Cl,38 µM,–,–
Cc1ccc(C[C@H]2COC[C@@H]2Cc2ccc(Cl)c(Cl)c2)cc1,21 µM,–,–
O=C1OC[C@H](Cc2ccc3c(c2)OCO3)[C@H]1Cc1ccc(Cl)c(Cl)c1,51 µM,–,–
COc1cccc(C[C@H]2C(=O)OC[C@@H]2Cc2ccccc2)c1,66 µM,–,–
COc1ccc(C[C@H]2C(=O)OC[C@@H]2Cc2ccccc2)cc1OC,> 100 µM,–,38%
O=C1OC[C@H](Cc2ccccc2)[C@H]1Cc1cccc(Cl)c1,36 µM,–,–

SMILES,EC50 (HL-60 [1]),EC50 (HeLa),inhibition (INH) (HL-60 [2])
O=C1OC[C@H](Cc2ccccc2)[C@H]1Cc1cccc(C(F)(F)F)c1,34 µM,–,–
O=C1OC[C@H](Cc2cccc(F)c2)[C@H]1Cc1ccc(Cl)c(Cl)c1,14 µM,20 µM,–
COc1cccc(C[C@H]2COC[C@@H]2Cc2ccc(Cl)c(Cl)c2)c1,73 µM,–,–
Fc1ccc(C[C@H]2COC[C@@H]2Cc2ccc(Cl)c(Cl)c2)cc1F,18 µM,–,–
O=C1OC[C@H](Cc2ccc(Cl)c(Cl)c2)[C@H]1Cc1ccc(Cl)c(Cl)c1,20 µM,–,–
O=C1OC[C@H](Cc2ccccc2)[C@H]1Cc1ccccc1Cl,37 µM,–,–
CCCCOc1cc(C[C@H]2C(=O)OC[C@@H]2Cc2ccccc2)ccc1O,35 µM,–,–
Fc1ccccc1C[C@H]1COC[C@@H]1Cc1ccc(Cl)c(Cl)c1,51 µM,–,–
COc1cc(C[C@H]2COC(=O)[C@@H]2Cc2ccc(Cl)c(Cl)c2)ccc1O,36 µM,–,–
O=C1OC[C@H](Cc2ccc(O)cc2)[C@H]1Cc1ccc(Cl)c(Cl)c1,37 µM,–,–
O=C1OC[C@H](Cc2ccc(F)cc2)[C@H]1Cc1ccc(Cl)c(Cl)c1,14 µM,19 µM,–
CCCCOc1ccc(/C=C2/C(=O)OC[C@@H]2Cc2ccccc2)cc1,> 100 µM,–,36%
CCCCOc1ccc(C[C@H]2C(=O)OC[C@@H]2Cc2ccccc2)cc1,23 µM,27 µM,–
COc1ccc(C[C@H]2COC[C@@H]2Cc2ccc(Cl)c(Cl)c2)cc1O,33 µM,–,–
CCCCOc1ccccc1C[C@H]1COC[C@@H]1Cc1ccc(Cl)c(Cl)c1,20 µM,–,–
CCCCOc1ccc(C[C@H]2COC[C@@H]2Cc2ccccc2)cc1,11 µM,–,–
COc1cc(C[C@H]2COC[C@@H]2Cc2ccc(Cl)c(Cl)c2)ccc1O,21 µM,–,–
O=C1OC[C@H](Cc2ccccc2)[C@H]1Cc1ccc(OC(F)(F)F)cc1,27 µM,–,–
Fc1ccc(C[C@H]2COC[C@@H]2Cc2ccc(Cl)c(Cl)c2)cc1,43 µM,–,–
Cc1ccc(C[C@H]2COC[C@@H]2Cc2ccc(Cl)c(Cl)c2)cc1C,36 µM,–,–
COc1cc(C[C@H]2C(=O)OC[C@@H]2Cc2ccccc2)ccc1O,93 µM,–,–
CCCCCCCOc1ccccc1C[C@H]1C(=O)OC[C@@H]1Cc1ccccc1,75 µM,–,–
O=C1OC[C@H](Cc2ccccc2)[C@H]1Cc1cccc(OC(F)(F)F)c1,34 µM,–,–
O=C1OC[C@H](Cc2ccccc2)[C@H]1Cc1ccc2c(c1)OCO2,57 µM,–,–
